The values that follow come from patent publication US7709471B2, “Compounds” (AstraZeneca AB, priority 2006, dated 2010).

The test system of test [1] is human colon tumour cell line HT29. The test can be described thus: Cellular Assay (phosphohistone H3 Ser10 mitotic marker, HT29). It is filed as cell-based. Conditions: HT-29, 24 h, HT29 cells, read-out: IC50 (cellular assay, phosphohistone H3).
Protocol: Chromosome condensation in mitosis is accompanied by phosphorylation of histone H3 on serine 10.
After 24 hours, cells were fixed in 3.7% (v/v) formaldehyde then permeabilised and blocked for 10 minutes in 100 μl 0.5% (v/v) Triton X-100, 1% (w/v) bovine serum albumin (BSA) in phosphate buffered saline (PBS). […] The raw assay data were analysed by non-linear regression analysis and used to determine an IC50 value for each compound.
The target in the next test is recombinant Plk1 (Homo sapiens, UniProt P53350). The experiment in a line: In Vitro Plk1 Enzyme Assay (SPA, GST-Cdc25C phosphorylation). As to conditions: ATP 64 nM, 90 minutes, read-out: IC50 (Plk1 enzyme inhibition). It is filed as biochemical.
Chain of recombinant Plk1 (P53350 whole entry): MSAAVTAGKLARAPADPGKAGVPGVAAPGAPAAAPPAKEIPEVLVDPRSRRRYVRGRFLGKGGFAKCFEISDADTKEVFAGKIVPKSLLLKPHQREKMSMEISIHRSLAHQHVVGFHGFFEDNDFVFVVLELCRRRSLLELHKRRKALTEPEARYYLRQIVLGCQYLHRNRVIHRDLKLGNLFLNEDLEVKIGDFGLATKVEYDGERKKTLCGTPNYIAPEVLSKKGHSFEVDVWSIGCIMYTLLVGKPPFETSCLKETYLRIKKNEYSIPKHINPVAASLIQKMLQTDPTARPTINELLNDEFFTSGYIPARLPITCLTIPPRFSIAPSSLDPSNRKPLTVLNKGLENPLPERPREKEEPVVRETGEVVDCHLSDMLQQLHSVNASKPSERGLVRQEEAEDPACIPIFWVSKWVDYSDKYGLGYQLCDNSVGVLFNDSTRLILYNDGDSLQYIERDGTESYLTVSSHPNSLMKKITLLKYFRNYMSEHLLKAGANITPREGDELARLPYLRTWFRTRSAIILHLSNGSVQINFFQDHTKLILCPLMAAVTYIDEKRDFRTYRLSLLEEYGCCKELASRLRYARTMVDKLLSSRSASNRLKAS

Where only a bound is given, the exact number is not on record here.

Broadly, the IC50 is the concentration that inhibits the measured activity by half. In the case of `CCN(CC)C1CCC(NC(=O)c2ccc(Nc3ncc4c(n3)N(C3CCCC3)CCC(=O)N4C)c(OC)c2)CC1` (stereo not drawn) [Example 58, 4-[(6-cyclopentyl-2-methyl-3-oxo-2,6,8,10-tetrazabicyclo[5.4.0]undeca-8,10,12-trien-9-yl)amino]-N-(4-diethylaminocyclohexyl)-3-methoxy-benzamide], the IC50 (in test [1]; at recombinant Plk1) was less than 0.3 µM each time.

Turning to `COc1cc(C(=O)NCCCCN2CCCC2)ccc1Nc1ncc2c(n1)N(C(C)C)CCC(=O)N2C` [Example 209, 3-methoxy-4-[(2-methyl-3-oxo-6-propan-2-yl-2,6,8,10-tetrazabicyclo[5.4.0]undeca-7,9,11-trien-9-yl)amino]-N-(4-pyrrolidin-1-ylbutyl)benzamide], the IC50 (in test [1]; on recombinant Plk1) was less than 0.3 µM each time.

For `CC(=O)N1CCN(c2ccc(Nc3ncc4c(n3)N(C3CCCC3)CCC(=O)N4C)cc2)CC1` [Example 128, 9-[[4-(4-acetylpiperazin-1-yl)phenyl]amino]-6-cyclopentyl-2-methyl-2,6,8,10-tetrazabicyclo[5.4.0]undeca-8,10,12-trien-3-one], the IC50 in test [1] is less than 30 µM; at recombinant Plk1 it was less than 1 µM.

Take `CCN1CCC(=O)N(C)c2cnc(Nc3ccc(C(=O)NC4CCN(C)CC4)cc3OC)nc21` [Example 210, 4-[(6-ethyl-2-methyl-3-oxo-2,6,8,10-tetrazabicyclo[5.4.0]undeca-7,9,11-trien-9-yl)amino]-3-methoxy-N-(1-methyl-4-piperidyl)benzamide]: the IC50 (in test [1]; at recombinant Plk1) was less than 0.3 µM in each case.

In the case of `COc1cc(C(=O)Nc2cccnc2)ccc1Nc1ncc2c(n1)N(C1CCCC1)CCC(=O)N2C` [Example 74, 4-[(6-cyclopentyl-2-methyl-3-oxo-2,6,8,10-tetrazabicyclo[5.4.0]undeca-8,10,12-trien-9-yl)amino]-3-methoxy-N-pyridin-3-yl-benzamide], the IC50 in test [1] was less than 0.3 µM; at recombinant Plk1, less than 100 µM.

For the compound `CCOc1cc(C(=O)NC2CCN(CC)CC2)ccc1Nc1ncc2c(n1)N(C(C)C)CCC(=O)N2C` [Example 282, 3-ethoxy-N-(1-ethyl-4-piperidyl)-4-[(6-methyl-5-oxo-2-propan-2-yl-2,6,9,11-tetrazabicyclo[5.4.0]undeca-7,9,11-trien-10-yl)amino]benzamide], the IC50 (in test [1]; on recombinant Plk1) was less than 1 µM in each case.

With `CCN(CC)CCCC(C)NC(=O)c1ccc(Nc2ncc3c(n2)N(C2CCCC2)CCC(=O)N3C)c(OC)c1` (stereo not drawn) [Example 17, 4-[(6-cyclopentyl-2-methyl-3-oxo-2,6,8,10-tetrazabicyclo[5.4.0]undeca-8,10,12-trien-9-yl)amino]-N-(5-diethylaminopentan-2-yl)-3-methoxy-benzamide], the IC50 (in test [1]; on recombinant Plk1) was less than 0.3 µM each time.

For the compound `CN1C(=O)CCN(C2CCCC2)c2nc(Nc3ccncc3)ncc21` [Example 268, 6-cyclopentyl-2-methyl-9-(pyridin-4-ylamino)-2,6,8,10-tetrazabicyclo[5.4.0]undeca-8,10,12-trien-3-one], on recombinant Plk1, the IC50 is less than 100 µM.

As for `CNC(=O)c1ccc(Nc2ncc3c(n2)N(C2CCCC2)CCC(=O)N3C)cc1` [Example 102, 4-[(6-cyclopentyl-2-methyl-3-oxo-2,6,8,10-tetrazabicyclo[5.4.0]undeca-8,10,12-trien-9-yl)amino]-N-methyl-benzamide], the IC50 at recombinant Plk1 was less than 0.3 µM.

As for `CC(C)c1cccc(Nc2ncc3c(n2)N(C2CCCC2)CCC(=O)N3C)c1` [Example 174, 6-cyclopentyl-2-methyl-9-[(3-propan-2-ylphenyl)amino]-2,6,8,10-tetrazabicyclo[5.4.0]undeca-8,10,12-trien-3-one], the IC50 on recombinant Plk1 was less than 100 µM.

For the compound `CN(C)CC(C)(C)CNC(=O)c1ccc(Nc2ncc3c(n2)N(C2CCCC2)CCC(=O)N3)c(Cl)c1` [Example 255, 3-chloro-4-[(6-cyclopentyl-3-oxo-2,6,8,10-tetrazabicyclo[5.4.0]undeca-8,10,12-trien-9-yl)amino]-N-(3-dimethylamino-2,2-dimethyl-propyl)benzamide], the IC50 on recombinant Plk1 was less than 100 µM.

For “6-cyclopentyl-9-[[5-(3-dimethylaminopyrrolidin-1-yl)-2-methoxy-phenyl]amino]-2-methyl-2,6,8,10-tetrazabicyclo[5.4.0]undeca-8,10,12-trien-3-one [Example 182]”, the IC50 on recombinant Plk1 is less than 1 µM.

Take `COc1cc(C(=O)NC2CCN(C)CC2)ccc1Nc1ncc2c(n1)N(CC(C)C)CCC(=O)N2C` [Example 211, 3-methoxy-4-[[2-methyl-6-(2-methylpropyl)-3-oxo-2,6,8,10-tetrazabicyclo[5.4.0]undeca-7,9,11-trien-9-yl]amino]-N-(1-methyl-4-piperidyl)benzamide]: on recombinant Plk1, the IC50 was less than 0.3 µM.

In the case of `CCCC1CN(C2CCCC2)c2nc(Nc3ccc(C(=O)NC4CCN(C)CC4)cc3OC)ncc2N(C)C1=O` (single isomer, unassigned) [Example 239], the IC50 at recombinant Plk1 is less than 100 µM.

With `CC(C)NC(=O)c1ccc(Nc2ncc3c(n2)N(C2CCCC2)CCC(=O)N3C)cc1` [Example 100, 4-[(6-cyclopentyl-2-methyl-3-oxo-2,6,8,10-tetrazabicyclo[5.4.0]undeca-8,10,12-trien-9-yl)amino]-N-propan-2-yl-benzamide], the IC50 at recombinant Plk1 is less than 0.3 µM.

Regarding `O=C1CCN(c2ccccc2)c2nc(Nc3ccc(C(=O)NCCN4CCOCC4)cc3Cl)ncc2N1` [Example 247, 3-chloro-N-(2-morpholin-4-ylethyl)-4-[(3-oxo-6-phenyl-2,6,8,10-tetrazabicyclo[5.4.0]undeca-7,9,11-trien-9-yl)amino]benzamide], the IC50 on recombinant Plk1 was less than 100 µM.

Consider `CN1C(=O)CCN(C2CCCC2)c2nc(Nc3ccccc3O)ncc21` [Example 142, 6-cyclopentyl-9-[(2-hydroxyphenyl)amino]-2-methyl-2,6,8,10-tetrazabicyclo[5.4.0]undeca-8,10,12-trien-3-one], for which, on recombinant Plk1, the IC50 was less than 0.3 µM.

`C#Cc1cccc(Nc2ncc3c(n2)N(C2CCCC2)CCC(=O)N3C)c1` [Example 168, 6-cyclopentyl-9-[(3-ethynylphenyl)amino]-2-methyl-2,6,8,10-tetrazabicyclo[5.4.0]undeca-8,10,12-trien-3-one]: the concentration for half-maximal inhibition (IC50) at recombinant Plk1 was less than 100 µM.

In the case of `CN1C(=O)CCN(C2CCCC2)c2nc(Nc3cccc(S(=O)(=O)N4CCOCC4)c3)ncc21` [Example 183, 6-cyclopentyl-2-methyl-9-[(3-morpholin-4-ylsulfonylphenyl)amino]-2,6,8,10-tetrazabicyclo[5.4.0]undeca-8,10,12-trien-3-one], at recombinant Plk1, the IC50 was less than 100 µM.

For the compound `COc1cc(C(=O)NC2CCN(C)CC2)ccc1Nc1ncc2c(n1)N(Cc1csc(C)n1)CCC(=O)N2C` [Example 216, 3-methoxy-4-[[2-methyl-6-[(2-methyl1,3-thiazol-4-yl)methyl]-3-oxo-2,6,8,10-tetrazabicyclo[5.4.0]undeca-7,9,11-trien-9-yl]amino]-N-(1-methyl-4-piperidyl)benzamide], the IC50 at recombinant Plk1 was less than 1 µM.

In the case of `Cc1nc(Nc2ncc3c(n2)N(C2CCCC2)CCC(=O)N3C)sc1C(=O)NC1CCN(C)CC1` [Example 262, 2-[(6-cyclopentyl-2-methyl-3-oxo-2,6,8,10-tetrazabicyclo[5.4.0]undeca-8,10,12-trien-9-yl)amino]-4-methyl-N-(1-methyl-4-piperidyl)1,3-thiazole-5-carboxamide], at recombinant Plk1, the IC50 was less than 1 µM.

`CC(C)N1CCC(=O)N(C)c2cnc(Nc3ccc(C(=O)NCC(C)(C)CN(C)C)cc3)nc21` [Example 222, N-(3-dimethylamino-2,2-dimethyl-propyl)-4-[(2-methyl-3-oxo-6-propan-2-yl-2,6,8,10-tetrazabicyclo[5.4.0]undeca-7,9,11-trien-9-yl)amino]benzamide]: the IC50 at recombinant Plk1 is less than 0.3 µM.

Turning to `CN1C(=O)CCN(c2ccccc2)c2nc(Nc3ccc(C(=O)NCCN4CCOCC4)cc3Cl)ncc21` [Example 226, 3-chloro-4-[(2-methyl-3-oxo-6-phenyl-2,6,8,10-tetrazabicyclo[5.4.0]undeca-8,10,12-trien-9-yl)amino]-N-(2-morpholin-4-ylethyl)benzamide], at recombinant Plk1, the IC50 is less than 1 µM.

On to `CN1C(=O)CCN(C2CCCC2)c2nc(Nc3cccc(CNC(=O)OC(C)(C)C)c3)ncc21` [Example 136, tert-butyl N-[[3-[(6-cyclopentyl-2-methyl-3-oxo-2,6,8,10-tetrazabicyclo[5.4.0]undeca-8,10,12-trien-9-yl)amino]phenyl]methyl]carbamate], for which the IC50 at recombinant Plk1 was less than 100 µM.

In the case of `COc1ccccc1Nc1ncc2c(n1)N(C1CCCC1)CCC(=O)N2C` [Example 139, 6-cyclopentyl-9-[(2-methoxyphenyl)amino]-2-methyl-2,6,8,10-tetrazabicyclo[5.4.0]undeca-8,10,12-trien-3-one], the IC50 at recombinant Plk1 was less than 1 µM.

On to `COCC(C)N1CCC(=O)Nc2cnc(Nc3ccc(C(=O)NC4CCN(C)CC4)cc3OC)nc21` (stereo not drawn) [Example 258, 3-methoxy-4-[[6-(1-methoxypropan-2-yl)-3-oxo-2,6,8,10-tetrazabicyclo[5.4.0]undeca-7,9,11-trien-9-yl]amino]-N-(1-methyl-4-piperidyl)benzamide], for which the IC50 at recombinant Plk1 is less than 100 µM.

On to `COc1cccc(Nc2ncc3c(n2)N(C2CCCC2)CCC(=O)N3C)c1` [Example 161, 6-cyclopentyl-9-[(3-methoxyphenyl)amino]-2-methyl-2,6,8,10-tetrazabicyclo[5.4.0]undeca-8,10,12-trien-3-one], for which the half-maximal inhibitory concentration (IC50) at recombinant Plk1 is less than 1 µM.

On to `CN1C(=O)CCN(C2CCCC2)c2nc(Nc3cccc(C(=O)c4ccccc4)c3)ncc21` [Example 169, 9-[(3-benzoylphenyl)amino]-6-cyclopentyl-2-methyl-2,6,8,10-tetrazabicyclo[5.4.0]undeca-8,10,12-trien-3-one], for which the IC50 at recombinant Plk1 is less than 100 µM.

For the compound `CNS(=O)(=O)c1ccccc1Nc1ncc2c(n1)N(C1CCCC1)CCC(=O)N2C` [Example 155, 2-[(6-cyclopentyl-2-methyl-3-oxo-2,6,8,10-tetrazabicyclo[5.4.0]undeca-8,10,12-trien-9-yl)amino]-N-methyl-benzenesulfonamide], on recombinant Plk1, the concentration for half-maximal inhibition (IC50) is less than 100 µM.
